Read-outs that look alike come from different tables or passages of the source.
Columns and labels:
[1] = molecular target: T1, glucocorticoid receptor (GR) (Homo sapiens, UniProt P04150); assay: Ligand binding assay (GR BIND), 3H-dexamethasone displacement in MDA-MB-453 cell lysate; settings: Table 1
T1 sequence (P04150 1-777): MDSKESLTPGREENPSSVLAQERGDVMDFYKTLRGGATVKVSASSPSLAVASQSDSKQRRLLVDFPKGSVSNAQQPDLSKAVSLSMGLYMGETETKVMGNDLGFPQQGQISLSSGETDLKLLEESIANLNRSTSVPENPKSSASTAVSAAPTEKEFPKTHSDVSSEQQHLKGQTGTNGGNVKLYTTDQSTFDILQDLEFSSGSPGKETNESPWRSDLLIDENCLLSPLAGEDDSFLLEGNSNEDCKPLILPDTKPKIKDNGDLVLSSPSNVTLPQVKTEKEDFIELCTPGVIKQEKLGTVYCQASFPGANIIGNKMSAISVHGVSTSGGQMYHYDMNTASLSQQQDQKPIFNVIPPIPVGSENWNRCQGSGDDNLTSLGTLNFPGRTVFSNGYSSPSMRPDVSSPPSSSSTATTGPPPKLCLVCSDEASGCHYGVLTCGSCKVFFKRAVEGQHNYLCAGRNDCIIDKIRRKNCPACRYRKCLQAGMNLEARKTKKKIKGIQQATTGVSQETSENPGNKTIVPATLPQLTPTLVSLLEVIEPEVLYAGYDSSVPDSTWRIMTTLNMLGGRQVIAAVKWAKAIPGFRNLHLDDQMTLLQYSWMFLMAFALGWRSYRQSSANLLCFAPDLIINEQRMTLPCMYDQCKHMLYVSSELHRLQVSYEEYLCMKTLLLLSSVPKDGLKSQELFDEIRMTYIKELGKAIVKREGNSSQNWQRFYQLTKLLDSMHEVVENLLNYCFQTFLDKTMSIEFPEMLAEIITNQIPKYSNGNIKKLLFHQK

Glucocorticoid Receptor = molecular target: T2, Glucocorticoid Receptor (Homo sapiens, UniProt P04150); assay: Trans-Activation Modulation of Glucocorticoid Receptor (GRAMMER), MMTV-LUC reporter gene in A549 cells; format: cell-based; settings: Table 1; for Emax: A549, A549 cells, read-out: Transactivation A549 Cells GRAMMER Emax; for EC50: inflection point, read-out: Transactivation A549 Cells GRAMMER IP
T2 construct: These cells express large amount of the GR and are very responsive to GC treatment; endogenous in cells; host or cells: A549 cells transiently transfected with the MMTV-LUC reporter
T2 sequence (P04150 1-777): T1 sequence (P04150 1-777)
Procedure, shortened: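 Luciferase from a transiently transfected MMTV-LUC reporter was measured after 24 h compound exposure (≤1% DMSO) in A549 or MDA-MB-453 cells. For antagonism, the decrease of 10 nM dexamethasone-induced signal was calculated. For agonism, Emax was referenced to 300 nM dexamethasone.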

human GR = molecular target: T3, human GR (Homo sapiens, UniProt P04150); assay: Transrepression Assay (GITAR), TNFα-β-lactamase reporter gene in U937 cells; format: cell-based; settings: for GITAR Greater than by GRAMMER % SEP: GITAR Emax minus GRAMMER Emax; for EC50: inflection point, read-out: Transrepression U937 Cells GITAR IP
T3 construct: U937 cells contain an endogenous glucocorticoid receptor (GR); endogenous in cells; host or cells: U937 cells stably transfected with the TNF-alpha promoter/beta-lactamase reporter
T3 sequence (P04150 1-777): T1 sequence (P04150 1-777)
Procedure, shortened: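 Repression of PMA (5 ng/ml final)/LPS (100 ng/ml final)-induced TNF-α promoter activity, read as β-lactamase cleavage of CCF2-AM, in stably transfected U937 cells expressing native GR. Compound added 30-45 min before stimulation, overnight (~18 hr) 37° C; normalized to 100 nM dexamethasone (100%).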

[2] = Emax relative to 300 nM dexamethasone
[3] = U-937, U937 cells, activity repressed by 100 nM dexamethasone = 100%, Table 1, read-out: Transrepression U937 Cells GITAR Emax
[4] = U-937, text statement, 100 nM dexamethasone = 100%, read-out: maximal activity in the transrepression assay (GITAR)

Compound | Ki ([1]; GR BIND Ki) [nM] | Emax (Glucocorticoid Receptor; [2]) [%] | EC50 (Glucocorticoid Receptor; A549 cells) [nM] | GITAR Greater than by GRAMMER % SEP (human GR; Table 1) [%] | Emax (human GR; [3]) [%] | Emax (human GR; [4]) [%] | EC50 (human GR; U937 cells, Table 1) [nM] | Ki ([1]; read-out: GR BIND Ki) [nM] | Transactivation A549 Cells GRAMMER Emax (Glucocorticoid Receptor; A549 cells, Emax relative to 300 nM dexamethasone) [%] | Transrepression U937 Cells GITAR Emax (human GR; U937 cells, activity repressed by 100 nM dexamethasone = 100%, Table 1) [%]
CC(C)CN(C[C@@H](C)O)C(=O)[C@H]1CCC2=Cc3c(cnn3-c3ccc(F)cc3)C[C@@]21C [Compound 67, (4αR,5S)-1-(4-fluorophenyl)-N-[(2R)-2-hydroxypropyl]-N-isobutyl-4α-methyl-1,4,4α,5,6,7-hexahydrocyclopenta[f]indazole-5-carboxamide] | 5.1 | 67 | 725 | 9.9 | 76.9 | > 5 | 558 | – | – | –
C[C@]12Cc3cnn(-c4ccc(F)cc4)c3C=C1CC[C@@H]2C(=O)N(CCO)Cc1ccccc1 [Compound 36, (4αR,5S)-N-benzyl-1-(4-fluorophenyl)-N-(2-hydroxyethyl)-4α-methyl-1,4,4α,5,6,7-hexahydrocyclopenta[f]indazole-5-carboxamide] | 11.7 | 12.5 | 872 | 54.9 | 67.4 | > 5 | 1280 | – | – | –
C[C@]12Cc3cnn(-c4ccc(F)cc4)c3C=C1CC[C@@H]2C(=O)N(CCO)Cc1cccc(F)c1 [Compound 33, (4αR,5S)-N-(3-fluorobenzyl)-1-(4-fluorophenyl)-N-(2-hydroxyethyl)-4α-methyl-1,4,4α,5,6,7-hexahydrocyclopenta[f]indazole-5-carboxamide] | 7.7 | 12.2 | 901 | 44.1 | 56.3 | > 5 | 1520 | – | – | –
CCCCN(CCO)C(=O)[C@H]1CCC2=Cc3c(cnn3-c3ccc(F)cc3)C[C@@]21C [Compound 26, (4αR,5S)-N-butyl-1-(4-fluorophenyl)-N-(2-hydroxyethyl)-4α-methyl-1,4,4α,5,6,7-hexahydrocyclopenta[f]indazole-5-carboxamide] | 16.4 | 39.3 | 812 | 44.1 | 83.4 | > 5 | 809 | – | – | –
CCCN(CC(O)C(F)(F)F)C(=O)[C@H]1CCC2=Cc3c(cnn3-c3ccc(F)cc3)C[C@@]21C (stereo partly drawn) [Compound 61, (4αR,5S)-1-(4-fluorophenyl)-4α-methyl-N-propyl-N-(3,3,3-trifluoro-2-hydroxypropyl)-1,4,4α,5,6,7-hexahydrocyclopenta[f]indazole-5-carboxamide] | 1 | 82.4 | 55.6 | 14.0 | 96.5 | > 5 | 41.2 | – | – | –
CCN(CC(O)C(F)(F)F)C(=O)[C@H]1CCC2=Cc3c(cnn3-c3ccccc3)C[C@@]21C (stereo partly drawn) [Compound 76, (4αR,5S)-N-ethyl-4α-methyl-1-phenyl-N-(3,3,3-trifluoro-2-hydroxypropyl)-1,4,4α,5,6,7-hexahydrocyclopenta[f]indazole-5-carboxamide] | 4.2 | 78.2 | 314 | 6.1 | 84.3 | > 5 | 225 | – | – | –
CC1CC(C)CN(C(=O)[C@H]2CCC3=Cc4c(cnn4-c4ccc(F)cc4)C[C@@]32C)C1 (stereo partly drawn) [Compound 53, (4αR,5S)-5-[(3,5-dimethylpiperidin-1-yl)carbonyl]-1-(4-fluorophenyl)-4α-methyl-1,4,4α,5,6,7-hexahydrocyclopenta[f]indazole] | 37.4 | 18.3 | 2290 | 40.2 | 58.4 | > 5 | 2250 | – | – | –
CC(C)CN(C[C@H](C)O)C(=O)[C@H]1CCC2=Cc3c(cnn3-c3ccc(F)cc3)C[C@@]21C [Compound 66, (4αR,5S)-1-(4-fluorophenyl)-N-[(2S)-2-hydroxypropyl]-N-isobutyl-4α-methyl-1,4,4α,5,6,7-hexahydrocyclopenta[f]indazole-5-carboxamide] | 8.7 | 67.6 | 613 | 10.5 | 78.1 | > 5 | 685 | – | – | –
C[C@]12Cc3cnn(-c4ccc(F)cc4)c3C=C1CC[C@@H]2C(=O)N(CCO)CCc1ccccc1 [Compound 35, (4αR,5S)-1-(4-fluorophenyl)-N-(2-hydroxyethyl)-4α-methyl-N-(2-phenylethyl)-1,4,4α,5,6,7-hexahydrocyclopenta[f]indazole-5-carboxamide] | 14.7 | 31.8 | 2650 | 30.8 | 62.6 | > 5 | 945 | – | – | –
(4αR,5S)-N,N-dibutyl-1-(4-fluorophenyl)- 4α-methyl-1,4,4α,5,6,7- hexahydrocyclopenta[f]indazole-5- carboxamide [Compound 9] | – | – | 360 | 15.9 | – | – | 497 | 1 | 38.5 | 54.4
CC(C)CN(CC(O)C(F)(F)F)C(=O)[C@H]1CCC2=Cc3c(cnn3-c3ccc(F)cc3)C[C@@]21C (stereo partly drawn) [Compound 58, (4αR,5S)-1-(4-fluorophenyl)-N-isobutyl-4α-methyl-N-(3,3,3-trifluoro-2-hydroxypropyl)-1,4,4α,5,6,7-hexahydrocyclopenta[f]indazole-5-carboxamide] | 7.3 | 71.5 | 227 | 15.3 | 86.8 | > 5 | 122 | – | – | –
CN(CC(O)C(F)(F)F)C(=O)[C@H]1CCC2=Cc3c(cnn3-c3ccc(F)cc3)C[C@@]21C (stereo partly drawn) [Compound 70, (4αR,5S)-1-(4-fluorophenyl)-N,4α-dimethyl-N-(3,3,3-trifluoro-2-hydroxypropyl)-1,4,4α,5,6,7-hexahydrocyclopenta[f]indazole-5-carboxamide] | 10.7 | 62.5 | 231 | 24.5 | 86.9 | > 5 | 276 | – | – | –
CCN(CC(O)C(F)(F)F)C(=O)[C@H]1CCC2=Cc3c(cnn3-c3ccc(F)cc3)C[C@@]21C (stereo partly drawn) [Compound 71, (4αR,5S)-N-ethyl-1-(4-fluorophenyl)-4α-methyl-N-(3,3,3-trifluoro-2-hydroxypropyl)-1,4,4α,5,6,7-hexahydrocyclopenta[f]indazole-5-carboxamide] | 2.6 | 71.7 | 151 | 24.0 | 95.6 | > 5 | 85 | – | – | –
C[C@]12Cc3cnn(-c4ccc(F)cc4)c3C=C1CC[C@@H]2C(=O)N(CCO)Cc1ccccc1CS(=O)(=O)c1ccccc1 [Compound 30, (4αR,5S)-1-(4-fluorophenyl)-N-(2-hydroxyethyl)-4α-methyl-N-{2-[(phenylsulfonyl)methyl]benzyl}-1,4,4α,5,6,7-hexahydrocyclopenta[f] carboxamide] | 12.2 | 4.3 | 1110 | 31.2 | 35.5 | > 5 | 1080 | – | – | –
COc1ccccc1CCN(CC(O)C(F)(F)F)C(=O)[C@H]1CCC2=Cc3c(cnn3-c3ccc(F)cc3)C[C@@]21C (stereo partly drawn) [Compound 83, (4αR,5S)-1-(4-fluorophenyl)-N-[2-(2-methoxyphenyl)ethyl] -4α-methyl-N-(3,3,3-trifluoro-2-hydroxypropyl)-1,4,4α,5,6,7-hexahydrocyclopenta[f]indazole-5-carboxamide] | 2.2 | 21.6 | 366 | 35.3 | 56.9 | > 5 | 293 | – | – | –
